We go through three compounds from US20060057109A1 (priority 2002, published 2006).

Broadly, the half-life is how long it takes for the measured level to halve.

Data set [1] concerns 9L/P450 cells.
Data set [2] concerns 9L/P450 cells. The source holds these as a separate data set.
Data set [3] has as its system 9L/P450/p35-9 cells.
Protocol: Cells were then cultured for up to 17 days following the initial drug treatment. […] Cells remaining on the plates at each indicated time point were stained with crystal violet. Data shown are mean+/−half the range for A595 values n=2 samples at each time point.
Growth Inhibition Assay: 9L/P450 and 9L/P450-derived cells lines were plated at 1.5×10^5 cells per well in 12 well dishes in 1.5 ml media unless indicated otherwise. […] Cells remaining on the plate at the indicated times were washed twice with cold PBS and then stained with crystal violet solution, as described previously (Schwartz and Waxman, Mol Pharmacol. 60:1268-1279. (2001)). The stain was eluted from the cells and the absorbance read at 595 nm to determine the relative protein content of each sample (Jounaidi et al., Cancer Res. 58:4391-4401 (1998)).
Data set [4] has as its system 9L/P450/p35-9 cells. The data set is described as follows: Colony formation assay after CPA treatment. The data set is classed as cell-based, rat. The settings on record: 1 × 8 hr 1 mM CPA. From the text:
Relative colony formation activities are shown in parenthesis.

The conditions of data set [5]: human, in vivo; cited from earlier work.
The test system of data set [6] is 9L/P450 cells. The note with it: 1 × 8 hr 1 mM CPA.
For a further data set, the system named is 9L/LacZ bystander cells. The data set is described as follows: Bystander cytotoxicity, colony formation assay. The data set is classed as cell-based, rat. As to the method: The cytotoxicity conferred by 9L/P450 and 9L/P450/p35-9 cells on 9L/LacZ bystander cells was assayed using one of two protocols. […] Following this drug treatment cell survival was determined for each of the three cell lines (9L/P450, 9L/P450/p35-9 and 9L/LacZ) using a colony formation assay. In the experiment shown in FIGS. 6A and 6B (protocol 1) the 9L/LacZ bystander cells were plated on top of the 9L/P450 or 9L/P450/p35-9 cells, enabling the two cell populations to be in direct cell-cell contact. […]
Bystander Experiments. […] The cells were then grown in drug-free media for an additional 16 hr (i.e., 24 hr from the start of the second drug treatment), at which point the cells were trypsinized, collected, counted and replated at various densities in 6 well plates to allow for the growth of individual colonies, as follows: Drug-free control cells were replated in duplicate at 100, 150 and 250 cells/well. […] LacZ-positive colonies containing≧50 cells were counted. Cells were then re-stained with crystal violet and the total number of colonies was determined. The number of 9L/P450 or 9L/P450/p35-9 colonies on each plate was then calculated by subtracting number of the Lac Z-positive colonies from each sample. The colony efficiency (number of colonies/number of cells seeded) was then calculated for each treatment group. […]

Data set [7] concerns caspase 8 and caspase 9 in CPA-treated 9L/P450 cells. The data set is described as follows: Caspase 8 and caspase 9 activity in extracts of CPA-treated cells. The format is cell-based, rat. The settings on record: IAP expressed by retroviral transduction, cells treated with 1 mM CPA.
Protocol: 9L/P450 cells were infected with retrovirus encoding the IAPs p35 or Survivin. […] Shown in FIG. 1B are the caspase 8 and caspase 9 activities of the individual cell lines (mean+/−half the range for n=2 separate experiments).
Caspase Activity Measurements: Caspase activities were assayed as described previously (Schwartz and Waxman, Mol Pharmacol. 60:1268-1279. (2001)). […] Floating and attached cells were collected, pooled, dissolved in lysis buffer (10 mM Hepes buffer (pH 7.4) containing 2 mM EDTA, 0.1% CHAPS detergent, 5 mM DTT, 350 ng/ml PMSF, 10 ng/ml pepstatin A, 10 ng/ml aprotinin, and 20 ng/ml leupeptin) and then subjected to three freeze-thaw cycles. Lysates were spun and the supernatant (cell extract) was assayed for caspase 3, 8 and 9 activities by incubation with caspase form-selective substrates: Ac-DEVD-AMC (Biomol; cat # P-411) for caspase 3 (Talanian et al., J Biol. Chem. 272:9677-9682 (1997); Thomberry et al., J Biol. Chem. 272:17907-17911 (1997)), LETD-AFC (BioRad; cat# 170-3186) for caspase 8 and Ac-LEHD-AFC (BioRad; cat# 170-3190) for caspase 9.
Setting [8] is: three 8 hr treatments with 1 mM CPA.

Where two headings read alike, the source gives them in different places.

As for `CCCCS(=N)(=O)CCC(N)C(=O)O` (stereo not shown) [BSO, buthionine sulfoximine], the “effect of BSO pretreatment on cell growth” value with 9L/P450 cells [1] is listed as “no effect on cell growth”. Also, the cell survival in the data set on 9L/P450 cells [1] (BSO pretreatment (50 μM for 24 hr), then 1 mM CPA for 72 hr) is given as 13%. Moreover, in the data set on 9L/P450 cells [2], the “decrease in the cell's capacity to produce and release 4-OH-CPA into the culture media” value was found to be 86%.
On to `O=P1(N(CCCl)CCCl)NCCCO1` (stereo not shown) [CPA, cyclophosphamide], for which the entries for the “time to death of cells” value in the data set on 9L/P450 cells [1] (1 mM CPA continuously) and with 9L/P450/p35-9 cells [3] (1 mM CPA continuously) were 3 to 4 days and 8 days, respectively. In addition, the “cellular response to CPA in the absence of p35” value in the data set on 9L/P450 cells [1] (1 mM CPA for 72 hr) is listed as “cytotoxic response”. Further, in the data set on 9L/P450 cells [1] (1 mM CPA for 72 hr, without BSO), the cell survival is on record as 62%. Also, the cell killing result with 9L/P450 cells [1] (single 8 hr CPA treatment) and in the data set with 9L/P450/p35-9 cells [3] (single 8 hr CPA treatment) was “not sufficient to kill” each time. Further, the “day by which all cells died” value with 9L/P450 cells [1] (setting [8]) is 6 to 9 days; with 9L/P450/p35-9 cells [3] (setting [8]), no more than 17 days. Further, the figures for the “Relative colony formation activity (in parenthesis)” value in the data set with 9L/P450/p35-9 cells [4] (No Drug = 100) and with 9L/P450 cells [6] (No Drug = 100) were 2.9 ± 0.9 and 1.1 ± 0.5, respectively. For the same compound, the entries for the “Colonies per 10,000 cells” value with 9L/P450/p35-9 cells [4] (mean ± SD n=3) and with 9L/P450 cells [6] (mean ± SD n=3) were 150 ± 49 and 77, respectively. The half-life in data set [5] is 8 h. In addition, the bystander cell killing was 70-80% in the data set with 9L/LacZ bystander cells (co-cultured with 9L/P450/p35-9 cells across a permeable membrane, second 8 hr CPA treatment) and “little or no bystander cell killing” in the data set with 9L/LacZ bystander cells (co-cultured with CPA-pretreated 9L/P450 cells across a permeable membrane, second CPA treatment).
As for “hIAP2: human IAP (inhibitor of apoptosis), myc-tagged cDNA, expressed by retroviral transduction”, the “inhibition of caspase activity” value in data set [7] is reported as “less effective caspase inhibition”.
